From patent publication US8686150B2 (Sanofi, priority 2011, dated 2014) come the findings set out here.

The assay has as its target T1, human full-length recombinant PKC βII (Homo sapiens, UniProt P05771).
T1 construct: Active human full-length recombinant PKC βII; purchased Invitrogen GmbH, Darmstadt, Germany
Description: Determination of PKC βII inhibition (Caliper mobility-shift kinase assay, Fluorescein-RFARKGSLRQKNV peptide substrate). To be noted: example compounds at a final concentration of 1.14 μM (±0.15 μM). The assay is classed as biochemical. An outline of the steps:
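Compounds were tested at 1.14 μM final. Enzyme was activated by PS, DAG and CaCl2 in Hepes pH 7.4 with MgCl2, with substrate 3 μM and ATP 120 μM as pre-mix concentrations. After 60 min at 32 °C and an EDTA stop, Caliper separation gave fractional turnover, which was normalised to no-compound and no-enzyme controls.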

SMILES strings stand for the structures.

T1 sequence (P05771 1-673 isoform P05771-2): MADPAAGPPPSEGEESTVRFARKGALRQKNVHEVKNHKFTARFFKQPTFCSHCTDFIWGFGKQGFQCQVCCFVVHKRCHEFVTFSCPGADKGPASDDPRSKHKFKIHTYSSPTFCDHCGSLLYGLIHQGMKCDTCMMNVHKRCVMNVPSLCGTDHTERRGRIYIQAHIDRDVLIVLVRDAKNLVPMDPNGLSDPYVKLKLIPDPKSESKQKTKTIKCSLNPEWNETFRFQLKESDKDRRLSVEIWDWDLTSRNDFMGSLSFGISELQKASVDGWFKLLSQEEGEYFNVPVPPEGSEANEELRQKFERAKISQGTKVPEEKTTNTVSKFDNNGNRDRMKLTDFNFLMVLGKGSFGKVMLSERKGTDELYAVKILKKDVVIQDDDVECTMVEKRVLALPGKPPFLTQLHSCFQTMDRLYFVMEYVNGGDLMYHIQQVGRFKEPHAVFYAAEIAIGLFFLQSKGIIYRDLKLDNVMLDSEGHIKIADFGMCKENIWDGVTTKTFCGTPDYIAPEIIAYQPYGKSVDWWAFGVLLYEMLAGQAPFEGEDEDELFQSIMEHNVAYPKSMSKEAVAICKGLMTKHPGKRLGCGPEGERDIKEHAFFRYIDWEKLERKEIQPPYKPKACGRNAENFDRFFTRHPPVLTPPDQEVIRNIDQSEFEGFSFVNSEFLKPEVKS

In the case of `CCc1n[nH]c2nc(-c3ccc(O)cc3)cc(C(=O)N3CCC4(CCCNC4)C3)c12` (centres unmarked) [Example 173, (2,7-Diaza-spiro[4.5]dec-2-yl)-[3-ethyl-6-(4-hydroxy-phenyl)-1H-pyrazolo[3,4-b]pyridin-4-yl]-methanone], the inhibition at 1.14 µM turned out to be 58%.

Turning to `CCc1n[nH]c2nc(-c3ccc(O)cc3)cc(C(=O)N(C)C3CCN(C)CC3)c12` [Example 174, 3-Ethyl-6-(4-hydroxy-phenyl)-1H-pyrazolo[3,4-b]pyridine-4-carboxylic acid methyl-(1-methyl-piperidin-4-yl)-amide], the inhibition at 1.14 µM was 34%.

Take `CCc1n[nH]c2nc(-c3ccc(O)cc3)cc(C(=O)NC3CCCN(CC)C3)c12` (centres unmarked) [Example 175, 3-Ethyl-6-(4-hydroxy-phenyl)-1H-pyrazolo[3,4-b]pyridine-4-carboxylic acid (1-ethyl-piperidin-3-yl)-amide]: the inhibition at 1.14 µM turned out to be 46%.

On to `CCc1n[nH]c2nc(-c3ccc(O)cc3)cc(C(=O)N3CC[C@@H](N(C)C)C3)c12` [Example 176, ((R)-3-Dimethylamino-pyrrolidin-1-yl)-[3-ethyl-6-(4-hydroxy-phenyl)-1H-pyrazolo[3,4-b]pyridin-4-yl]-methanone], for which the inhibition at 1.14 µM turned out to be 40%.

`CCc1n[nH]c2nc(-c3ccc(O)cc3)cc(C(=O)N3CC[C@H](N(C)C)C3)c12` [Example 177, ((S)-3-Dimethylamino-pyrrolidin-1-yl)-[3-ethyl-6-(4-hydroxy-phenyl)-1H-pyrazolo[3,4-b]pyridin-4-yl]-methanone]: the inhibition at 1.14 µM came to 50%.

With `CCc1n[nH]c2nc(-c3ccc(O)cc3)cc(C(=O)N3CCC(NC)C3)c12` (centres unmarked) [Example 178, [3-Ethyl-6-(4-hydroxy-phenyl)-1H-pyrazolo[3,4-b]pyridin-4-yl]-(3-methylamino-pyrrolidin-1-yl)-methanone], the inhibition at 1.14 µM was 71%.

For the compound `CCc1n[nH]c2nc(-c3ccc(O)cc3)cc(C(=O)N3C[C@]4(C)CN(C)C[C@](C)(C3)C4O)c12` (stereo partly drawn) [Example 179, [3-Ethyl-6-(4-hydroxy-phenyl)-1H-pyrazolo[3,4-b]pyridin-4-yl]-((1S,5R)-9-hydroxy-1,5,7-trimethyl-3,7-diaza-bicyclo[3.3.1]non-3-yl)-methanone], the inhibition at 1.14 µM stood at 55%.

On to `CCc1n[nH]c2nc(-c3ccc(O)cc3)cc(C(=O)NC3CCCN(C)C3)c12` (centres unmarked) [Example 180, 3-Ethyl-6-(4-hydroxy-phenyl)-1H-pyrazolo[3,4-b]pyridine-4-carboxylic acid (1-methyl-piperidin-3-yl)-amide], for which the inhibition at 1.14 µM was determined as 53%.

Regarding `CCc1n[nH]c2nc(-c3ccc(O)cc3)cc(C(=O)NC3CC4(CCNCC4)c4ccccc43)c12` (centres unmarked) [Example 181, 3-Ethyl-6-(4-hydroxy-phenyl)-1H-pyrazolo[3,4-b]pyridine-4-carboxylic acid (2,3-dihydrospiro[1H-indene-1,4′-piperidin]-3-yl)-amide], the inhibition at 1.14 µM was 77%.

For `CCc1n[nH]c2nc(-c3ccc(O)cc3)cc(C(=O)NC3CCN(C)CC3)c12` [Example 182, 3-Ethyl-6-(4-hydroxy-phenyl)-1H-pyrazolo[3,4-b]pyridine-4-carboxylic acid (1-methyl-piperidin-4-yl)-amide], the inhibition at 1.14 µM is 44%.

`CCc1n[nH]c2nc(-c3ccc(O)cc3)cc(C(=O)NC3CNC3)c12` [Example 183, 3-Ethyl-6-(4-hydroxy-phenyl)-1H-pyrazolo[3,4-b]pyridine-4-carboxylic acid azetidin-3-ylamide]: the inhibition at 1.14 µM was 67%.

For the compound `CCc1n[nH]c2nc(-c3ccc(O)cc3)cc(C(=O)NC3CC4CCCC(C3)N4C)c12` (centres unmarked) [Example 184, 3-Ethyl-6-(4-hydroxy-phenyl)-1H-pyrazolo[3,4-b]pyridine-4-carboxylic acid (9-methyl-9-aza-bicyclo[3.3.1]non-3-yl)-amide], the inhibition at 1.14 µM worked out at 22%.

Take `CCc1n[nH]c2nc(-c3ccc(O)cc3)cc(C(=O)N[C@@H]3CCC(=O)NC3)c12` [Example 185, 3-Ethyl-6-(4-hydroxy-phenyl)-1H-pyrazolo[3,4-b]pyridine-4-carboxylic acid ((R)-6-oxo-piperidin-3-yl)-amide]: the inhibition at 1.14 µM worked out at 34%.

In the case of `CCc1n[nH]c2nc(-c3ccc(O)cc3)cc(C(=O)NCC3CCC(=O)N3)c12` (centres unmarked) [Example 186, 3-Ethyl-6-(4-hydroxy-phenyl)-1H-pyrazolo[3,4-b]pyridine-4-carboxylic acid (5-oxo-pyrrolidin-2-ylmethyl)-amide], the inhibition at 1.14 µM was 33%.

Take `CCc1n[nH]c2nc(-c3ccc(O)cc3)cc(C(=O)N3CCCN(CC)CC3)c12` [Example 187, (4-Ethyl-[1,4]diazepan-1-yl)-[3-ethyl-6-(4-hydroxy-phenyl)-1H-pyrazolo[3,4-b]pyridin-4-yl]-methanone]: the inhibition at 1.14 µM amounted to 58%.

Turning to `Cc1n[nH]c2nc(-c3ccc(O)cc3)cc(C(=O)N3CCNC[C@@H]3C)c12` [Example 188, [6-(4-Hydroxy-phenyl)-3-methyl-1H-pyrazolo[3,4-b]pyridin-4-yl]-((S)-2-methyl-piperazin-1-yl)-methanone], the inhibition at 1.14 µM amounted to 105%.

In the case of `Cc1n[nH]c2nc(-c3ccc(O)cc3)cc(C(=O)N3CCN[C@H](C)C3)c12` [Example 189, [6-(4-Hydroxy-phenyl)-3-methyl-1H-pyrazolo[3,4-b]pyridin-4-yl]-((R)-3-methyl-piperazin-1-yl)-methanone], the inhibition at 1.14 µM is 96%.

As to `Cc1n[nH]c2nc(-c3ccc(O)cc3)cc(C(=O)N3CCN[C@@H](C)C3)c12` [Example 190, [6-(4-Hydroxy-phenyl)-3-methyl-1H-pyrazolo[3,4-b]pyridin-4-yl]-((S)-3-methyl-piperazin-1-yl)-methanone], the inhibition at 1.14 µM came to 101%.

As for `Cc1n[nH]c2nc(-c3ccc(O)cc3)cc(C(=O)NC3CC4(CC(N)C4)C3)c12` (centres unmarked) [Example 191, 6-(4-Hydroxy-phenyl)-3-methyl-1H-pyrazolo[3,4-b]pyridine-4-carboxylic acid (6-amino-spiro[3.3]hept-2-yl)-amide], the inhibition at 1.14 µM worked out at 78%.

Take `Cc1n[nH]c2nc(-c3ccc(O)cc3)cc(C(=O)N3CC4CNCC4C3)c12` (centres unmarked) [Example 192, (Hexahydro-pyrrolo[3,4-c]pyrrol-2-yl)-[6-(4-hydroxy-phenyl)-3-methyl-1H-pyrazolo[3,4-b]pyridin-4-yl]-methanone]: the inhibition at 1.14 µM came to 99%.

For `Cc1n[nH]c2nc(-c3ccc(O)cc3)cc(C(=O)NC3CC4CC3CN4)c12` (centres unmarked) [Example 193, 6-(4-Hydroxy-phenyl)-3-methyl-1H-pyrazolo[3,4-b]pyridine-4-carboxylic acid (2-aza-bicyclo[2.2.1]hept-5-yl)-amide], the inhibition at 1.14 µM was found to be 94%.

Consider `Cc1n[nH]c2nc(-c3ccc(O)cc3)cc(C(=O)N3CCNC(C)C3C)c12` (centres unmarked) [Example 194, (2,3-Dimethyl-piperazin-1-yl)-[6-(4-hydroxy-phenyl)-3-methyl-1H-pyrazolo[3,4-b]pyridin-4-yl]-methanone], for which the inhibition at 1.14 µM stood at 99%.

On to `CCC[C@@H]1CN(C(=O)c2cc(-c3ccc(O)cc3)nc3[nH]nc(C)c23)CCN1` [Example 195, [6-(4-Hydroxy-phenyl)-3-methyl-1H-pyrazolo[3,4-b]pyridin-4-yl]-((R)-3-propyl-piperazin-1-yl)-methanone], for which the inhibition at 1.14 µM came to 95%.

For `Cc1n[nH]c2nc(-c3ccc(O)cc3)cc(C(=O)N3CCNC(C(F)(F)F)C3)c12` (centres unmarked) [Example 196, [6-(4-Hydroxy-phenyl)-3-methyl-1H-pyrazolo[3,4-b]pyridin-4-yl]-(3-trifluoromethyl-piperazin-1-yl)-methanone], the inhibition at 1.14 µM amounted to 75%.

In the case of `COC(=O)CC1CNCCN1C(=O)c1cc(-c2ccc(O)cc2)nc2[nH]nc(C)c12` (centres unmarked) [Example 197, {1-[6-(4-Hydroxy-phenyl)-3-methyl-1H-pyrazolo[3,4-b]pyridine-4-carbonyl]-piperazin-2-yl}-acetic acid methyl ester], the inhibition at 1.14 µM amounted to 95%.

Take `Cc1n[nH]c2nc(-c3ccc(O)cc3)cc(C(=O)N3CCNC(C)(C)C3)c12` [Example 198, (3,3-Dimethyl-piperazin-1-yl)-[6-(4-hydroxy-phenyl)-3-methyl-1H-pyrazolo[3,4-b]pyridin-4-yl]-methanone]: the inhibition at 1.14 µM is 99%.

With `Cc1n[nH]c2nc(-c3ccc(O)cc3)cc(C(=O)N3CCNCC3(C)C)c12` [Example 199, (2,2-Dimethyl-piperazin-1-yl)-[6-(4-hydroxy-phenyl)-3-methyl-1H-pyrazolo[3,4-b]pyridin-4-yl]-methanone], the inhibition at 1.14 µM stood at 99%.

On to `Cc1n[nH]c2nc(-c3ccc(O)cc3)cc(C(=O)N[C@@H]3CN4CCC3CC4)c12` [Example 200], for which the “% Inhibition” value stood at 70%.

With `Cc1n[nH]c2nc(-c3ccc(O)cc3)cc(C(=O)NC3CC4CCC(C3)N4C)c12` [Example 201, 6-(4-Hydroxy-phenyl)-3-methyl-1H-pyrazolo[3,4-b]pyridine-4-carboxylic acid ((3R)-8-methyl-8-aza-bicyclo[3.2.1]oct-3-yl)-amide], the “% Inhibition” value came to 55%.

Turning to `Cc1n[nH]c2nc(-c3ccc(O)cc3)cc(C(=O)N3CCNC[C@@H]3C(C)C)c12` [Example 202, [6-(4-Hydroxy-phenyl)-3-methyl-1H-pyrazolo[3,4-b]pyridin-4-yl]-((S)-2-isopropyl-piperazin-1-yl)-methanone], the inhibition at 1.14 µM amounted to 101%.

`Cc1n[nH]c2nc(-c3ccc(O)cc3)cc(C(=O)N3CC[C@@H](C4(N)CC4)C3)c12` [Example 203, [(R)-3-(1-Amino-cyclopropyl)-pyrrolidin-1-yl]-[6-(4-hydroxy-phenyl)-3-methyl-1H-pyrazolo[3,4-b]pyridin-4-yl]-methanone]: the inhibition at 1.14 µM was determined as 71%.

With `Cc1n[nH]c2nc(-c3ccc(O)cc3)cc(C(=O)NC3CCNC4(CCC4)C3)c12` (centres unmarked) [Example 204, 6-(4-Hydroxy-phenyl)-3-methyl-1H-pyrazolo[3,4-b]pyridine-4-carboxylic acid (5-aza-spiro[3.5]non-8-yl)-amide], the inhibition at 1.14 µM turned out to be 82%.

One may read the inhibition as the drop in the measured response relative to a control, in per cent. What is called % Inhibition is the relative decrease from the control value, in per cent.
